Source: PMC2607046 (Journal of medicinal chemistry, 2008)
Each block holds one compound with its values, some of them ahead of it.

Legend:
dopamine D3 receptor = dopamine D3 receptor (Rattus norvegicus, UniProt P19020); assay type: binding
dopamine D2L receptor = dopamine D2L receptor (Rattus norvegicus, UniProt P61169); assay type: binding
[1] = 35c (spacer length 4) relative to 35a (spacer length 2)

dopamine D3 receptor, sequence (P19020 whole entry): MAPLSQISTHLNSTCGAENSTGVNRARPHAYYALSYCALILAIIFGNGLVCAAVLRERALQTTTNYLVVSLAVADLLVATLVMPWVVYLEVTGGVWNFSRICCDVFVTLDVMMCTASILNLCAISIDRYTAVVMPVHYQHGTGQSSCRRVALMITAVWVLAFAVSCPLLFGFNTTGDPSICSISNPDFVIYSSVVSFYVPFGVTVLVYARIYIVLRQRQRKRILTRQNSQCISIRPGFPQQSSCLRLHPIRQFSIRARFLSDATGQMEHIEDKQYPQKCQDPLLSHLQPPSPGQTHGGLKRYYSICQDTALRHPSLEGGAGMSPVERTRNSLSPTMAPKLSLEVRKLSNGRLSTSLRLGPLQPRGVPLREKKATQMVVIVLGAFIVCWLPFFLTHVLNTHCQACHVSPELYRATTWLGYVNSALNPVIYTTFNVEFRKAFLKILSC
dopamine D2L receptor, sequence (P61169 whole entry): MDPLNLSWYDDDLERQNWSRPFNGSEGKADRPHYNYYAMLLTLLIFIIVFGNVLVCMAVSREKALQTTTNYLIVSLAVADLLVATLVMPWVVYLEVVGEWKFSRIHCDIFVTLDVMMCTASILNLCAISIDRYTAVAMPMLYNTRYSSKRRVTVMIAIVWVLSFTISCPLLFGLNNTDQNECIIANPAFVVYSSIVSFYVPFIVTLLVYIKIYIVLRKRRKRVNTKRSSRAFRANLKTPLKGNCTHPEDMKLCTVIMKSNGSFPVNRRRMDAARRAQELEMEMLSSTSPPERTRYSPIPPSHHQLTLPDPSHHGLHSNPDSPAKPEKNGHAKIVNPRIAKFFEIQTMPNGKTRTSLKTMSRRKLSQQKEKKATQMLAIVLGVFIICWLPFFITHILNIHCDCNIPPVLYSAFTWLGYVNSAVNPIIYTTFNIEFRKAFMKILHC

- gain in affinity for D3 receptor (dopamine D3 receptor; [1]): ~ 3 fold
- gain in affinity for D2 receptor (dopamine D2L receptor; [1]): ~ 9 fold
SMILES: Oc1ccc2c(c1)C[C@H]1[C@@H](CCCN1CCCCN1CCN(c3ccccc3)CC1)C2 (racemic) [(±)-35c, (±)-trans-1-[4-(4-Phenylpiperazin-1-yl)butyl]-1,2,3,4,4a,5,10,10a-octahydrobenzo-[g]quinolin-8-ol]

- Ki (dopamine D3 receptor): 14.9 ± 4.3 nM
SMILES: Oc1cccc2c1CC[C@H]1[C@H]2CCCN1CCN1CCN(c2ccccc2)CC1 (racemic) [(±)-8, (±)-trans-4-(2-(4-Phenylpiperazin-1-yl)ethyl)-1,2,3,4,4a,5,6,10b-octahydrobenzo[f]-quinolin-7-ol]

SMILES: CCCN(CCN1CCN(c2ccccc2)CC1)[C@H]1CCc2c(O)cccc2C1 [(−)-7]
- difference in inhibition constants between enantiomers, D2L receptor (dopamine D2L receptor; (−)-7 versus its enantiomer (+)-7): ~ 9 fold
